Reference: patent US20240350522A1, “HYGROMYCIN A FOR TREATMENT OF DISEASES AND INFECTIONS” (FLIGHTPATH BIOSCIENCES, INC., priority 2021, published 2024)
Several values for one entry are separate records, joined by “and”; a condition that tells them apart may be missing. Equal values may be shown once. Read-outs that look alike come from different tables or passages of the source.

Tests used:
Treponema denticola = experiment: MIC of Hyg A against Treponema denticola strains (broth dilution, phenol red); type: cell-based; conditions: for MIC: Treponema denticola
[1] = system: Treponema pallidum pallidum SS14 strain; experiment: Treated treponemes seeded onto no-antibiotic plate, 7 more days, T47 qPCR (treponemicidal activity); type: cell-based; conditions: for Mean T47 copies/μL, Avg. / Mean T47 copies/μL, Expt. values: seeded on no antibiotic plate; for Mean T47 copies/μL, Avg.: average; for Mean T47 copies/μL, Expt. values: replicate wells
[2] = pre-treated with Hygromycin A 0.03 μg/ml
[3] = pre-treated with Hygromycin A 0.06 μg/ml
[4] = pre-treated with Hygromycin A 0.12 μg/ml
[5] = pre-treated with Hygromycin A 0.24 μg/ml
[6] = pre-treated with Hygromycin A 0.48 μg/ml
[7] = pre-treated with Hygromycin A 0.96 μg/ml
[8] = pre-treated with Hygromycin A 1.92 μg/ml
[9] = pre-treated with Hygromycin A 3.84 μg/ml

CC(=O)[C@H]1O[C@@H](Oc2ccc(/C=C(\C)C(=O)N[C@@H]3[C@H](O)[C@@H](O)[C@H]4OCO[C@H]4[C@@H]3O)cc2O)[C@@H](O)[C@@H]1O [Hyg A, Hygromycin A]
MIC (Treponema denticola; ATCC35404, ATCC 35404, strain most tolerant, read-out: MIC): 5 µg/mL | MIC (Treponema denticola; ATCC35404, ATCC strain 35404, range, read-out: MIC): 0.5 to 5 µg/mL | MIC (Treponema denticola; ATCC35405, Type strain ATCC 35405, read-out: MIC): 0.2 µg/mL | MIC (Treponema denticola; T. denticola 33520, experiment 1, read-out: MIC (μg/ml) 1): 1 µg/mL | MIC (Treponema denticola; T. denticola 33520, experiment 2, read-out: MIC (μg/ml) 2): 1 µg/mL | MIC (Treponema denticola; T. denticola 33521, experiment 1, read-out: MIC (μg/ml) 1): 0.5 µg/mL | MIC (Treponema denticola; T. denticola 33521, experiment 2, read-out: MIC (μg/ml) 2): 2 µg/mL | MIC (Treponema denticola; T. denticola 35404, experiment 1, read-out: MIC (μg/ml) 1): 0.5 to 1 µg/mL | MIC (Treponema denticola; T. denticola 35404, experiment 2, read-out: MIC (μg/ml) 2): 5 µg/mL | MIC (Treponema denticola; T. denticola 35405, experiment 1, read-out: MIC (μg/ml) 1): 0.2 µg/mL | MIC (Treponema denticola; T. denticola 35405, experiment 2, read-out: MIC (μg/ml) 2): 0.2 µg/mL | MIC (Treponema denticola; T. denticola ASLM, experiment 1, read-out: MIC (μg/ml) 1): 0.5 µg/mL | MIC (Treponema denticola; T. denticola ASLM, experiment 2, read-out: MIC (μg/ml) 2): 1 µg/mL | MIC (Treponema denticola; T. denticola H1-T, experiment 1, read-out: MIC (μg/ml) 1): 0.5 µg/mL | MIC (Treponema denticola; T. denticola H1-T, experiment 2, read-out: MIC (μg/ml) 2): 0.5 µg/mL | MIC (Treponema denticola; T. denticola OTK, experiment 1, read-out: MIC (μg/ml) 1): 0.5 µg/mL | MIC (Treponema denticola; T. denticola OTK, experiment 2, read-out: MIC (μg/ml) 2): 1 µg/mL | MIC (Treponema denticola; T. denticola SP44, experiment 1, read-out: MIC (μg/ml) 1): 1 µg/mL | MIC (Treponema denticola; T. denticola SP44, experiment 2, read-out: MIC (μg/ml) 2): 1 µg/mL | MIC (Treponema denticola; T. denticola US Trep, experiment 1, read-out: MIC (μg/ml) 1): 0.5 µg/mL | MIC (Treponema denticola; T. denticola US Trep, experiment 2, read-out: MIC (μg/ml) 2): 0.5 µg/mL | MIC (Treponema denticola; across T. denticola strains, read-out: MIC values for Treponema denticola strains, typical): ~0.5 µg/mL | MIC (Treponema denticola; low passage clinical isolate ASLM, read-out: MIC (Hyg A sensitivity)): 0.2 µg/mL | MIC (Treponema denticola; low passage clinical isolate SP44, read-out: MIC (Hyg A sensitivity)): 1 µg/mL | MIC values for Treponema denticola strains, range (Treponema denticola; across T. denticola strains): 0.2 to 1.0 µg/mL | concentration with treponemicidal activity ([1]; SS14 strain seeded onto no-antibiotic control plate): ≥ 0.12 µg/mL | Mean T47 copies/μL, Avg. [1, 2]: 2232 copies/μL | Mean T47 copies/μL, Expt. values [1, 2]: 1649 copies/μL and 3690 copies/μL and 3831 copies/μL and 2114 copies/μL and 445 copies/μL and 1541 copies/μL and 2079 copies/μL and 2511 copies/μL | Mean T47 copies/μL, Avg. [1, 3]: 199 copies/μL | Mean T47 copies/μL, Expt. values [1, 3]: 137 copies/μL and 310 copies/μL and 274 copies/μL and 99 copies/μL and 71 copies/μL and 159 copies/μL and 200 copies/μL and 343 copies/μL | Mean T47 copies/μL, Avg. [1, 4]: 20 copies/μL | Mean T47 copies/μL, Expt. values [1, 4]: 17 copies/μL and 14 copies/μL and 45 copies/μL and 0 copies/μL and 22 copies/μL and 25 copies/μL and 15 copies/μL and 24 copies/μL | Mean T47 copies/μL, Avg. [1, 5]: 13 copies/μL | Mean T47 copies/μL, Expt. values [1, 5]: 35 copies/μL and 16 copies/μL (2×) and 6 copies/μL and 5 copies/μL and 21 copies/μL and 7 copies/μL and 0 copies/μL | Mean T47 copies/μL, Avg. [1, 6]: 9 copies/μL | Mean T47 copies/μL, Expt. values [1, 6]: 2 copies/μL and 0 copies/μL (2×) and 16 copies/μL and 10 copies/μL and 31 copies/μL and 5 copies/μL and 6 copies/μL | Mean T47 copies/μL, Avg. [1, 7]: 7 copies/μL | Mean T47 copies/μL, Expt. values [1, 7]: 8 copies/μL and 11 copies/μL and 0 copies/μL (2×) and 3 copies/μL (2×) and 16 copies/μL and 13 copies/μL | Mean T47 copies/μL, Avg. [1, 8]: 13 copies/μL | Mean T47 copies/μL, Expt. values [1, 8]: 5 copies/μL (2×) and 7 copies/μL and 17 copies/μL and 19 copies/μL (2×) and 8 copies/μL and 22 copies/μL | Mean T47 copies/μL, Avg. [1, 9]: 19 copies/μL | Mean T47 copies/μL, Expt. values [1, 9]: 19 copies/μL and 25 copies/μL and 21 copies/μL (2×) and 18 copies/μL and 7 copies/μL and 15 copies/μL and 22 copies/μL
